Test results taken from US11753408B2, “Compounds and method for blocking transmission of malarial parasite” (The United States of America, as represented by the …, priority 2016, dated 2023).

Tests used:
Solubility at pH 7.4 = assay type: physicochemical
[1] = Microsomal stability (rat); assay type: in vitro ADME; settings: rat microsomes
[2] = system: Asexual parasites of P. falciparum strain 3D7; assay: In vitro drug activity on asexual parasites (SYBR Green assay); assay type: cell-based, Plasmodium falciparum
Method in brief: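 3D7 parasites at 0.5% parasitemia and 2% hematocrit were exposed to drugs (DMSO ≤0.5%) for 72 h under standard culture conditions, in duplicate. After freeze-thaw lysis, SYBR Green I lysis buffer was added for 30 min at room temperature, and fluorescence was read at 490/520 nm.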

mTOR = mTOR (Homo sapiens, UniProt P42345); assay: mTOR activity (no method described); assay type: biochemical
[3] = system: Stage III-V gametocytes (blood stage P. falciparum parasites); assay: In vitro drug activity on gametocytes (AlamarBlue viability assay); assay type: cell-based, Plasmodium falciparum; settings: read-out: Gametocyte EC50
Protocol: Cell culture. Asexual parasites of P. falciparum strain 3D7 were cultured as described previously [Trager W, et al., Journal of Parasitology 2005, 91: 484-486], Stage III-V gametocytes were selected and enriched with 3-day treatment with 50 mM N-acetylglucosamine (NAG) and the following Percoll density gradient centrifugation after gametocyte production [Tanaka T Q, et al., Molecular and Biochemical Parasitology, 2011, 111: 160-163], Gametocytes of HB3 and Dd2 strains were produced and then set up for assay in a similar process. HepG2 cells (ATCC, cat. no. 77400) were cultured in 175-cm^2 tissue culture flasks with 30 ml growth medium at 37° C. in a 5% CO2 humidified atmosphere. Growth medium was made with Dulbecco's Modified Eagle Medium with 10% fetal bovine serum (FBS). Growth medium was replaced every other day and cells were passed at 75% confluence.
Compound screening experiments were performed as previously described [Tanaka T Q et al., Molecular and Biochemical Parasitology, 2013, 3188: 20-25], Briefly, 2.5 μl/well incomplete medium was dispensed into each well of 1,536-well plates using the Multidrop Combi followed by 23 nl compound transferring using the NX-TR Pintool (WAKO Scientific Solutions, San Diego, Calif.). 2.5 μl/well of gametocytes was dispensed with a seeding density of 20,000 cells/well using the Multidrop Combi. The assay plates were incubated for 72 h at 37° C. with 5% CO2. After addition of 5 μl/well of 2× AlamarBlue dye (Life Technologies, cat. no. DALI 100), the plates were incubated for 24 h at 37° C. with 5% CO2 and were read in a fluorescence detection mode (Ex=525 nm, Em=598 nm) on a ViewLux plate reader (PerkinElmer).
Stage III-V gametocytes (blood stage P. falciparum parasites) were enriched with treatment with 50 mM N-acetylglucosamine (NAG) and Percoll density gradient centrifugation as described previously^1. Briefly, 2.5 μl/well incomplete medium was dispensed into each well of 1,536-well plates using the Multidrop Combi followed by 23 nl compound transfer using the NX-TR Pintool (WAKO Scientific Solutions, San Diego, Calif.). Then, 2.5 μl/well of gametocytes was dispensed with a seeding density of 20,000 cells/well using the Multidrop Combi. The assay plates were incubated for 72 h at 37° C. with 5% CO2. After addition of 5 μl/well of 2× AlamarBlue dye (Life Technologies, cat. no. DALI 100), the plates were incubated for 24 h at 37° C. with 5% CO2 and then were read in a fluorescence detection mode (Ex=525 nm, Em=598 nm) on a ViewLux plate reader (PerkinElmer).

Row | SMILES | Sol @ pH 7.4 (Solubility at pH 7.4) [ug/mL] | Microsomal Stability (rat) T1/2 [1] [min] | EC50 [2] [nM] | mTOR (mTOR) | EC50 [3] [nM]
1 | O=C(c1ccc(-n2c(=O)ccc3cnc4ccc(-c5ccc(Cl)cc5)cc4c32)cc1)N(C1CCCCC1)C1CC1 [Compound 142] | <1.0 | 1.4 | 13800 | 46.17 µM | 50000
2 | CNC(=O)c1ccc(-n2c(=O)ccc3cnc4ccc(-c5ccc(Cl)cc5)cc4c32)c(C)c1 [Compound 112] | 5 | 5 | 76.8 | 3.581 µM | 179
3 | O=C(c1ccc(-n2c(=O)ccc3c[n+]([O-])c4ccc(-c5ccc(Cl)cc5)cc4c32)cc1)N1CCOCC1 [Compound 148] | 21.8 | >30.0 | 601 | 18.17 µM | 4580
4 | CC1CC1NC(=O)c1ccc(-n2c(=O)ccc3cnc4ccc(-c5ccc(Cl)cc5)cc4c32)cc1 (stereo not drawn) [Compound 176] | <0.10 | – | 90.2 | 0.5562 µM | 283
5 | Cn1c(=O)n(-c2ccc(N3CCNCC3)c(C#N)c2)c2c3cc(-c4ccc(Cl)cc4)ccc3ncc21 [Compound 406] | <1 | 19.4 | 8.46 | 0.2165 µM | 13.1
6 | O=C(c1ccc(-n2c(=O)ccc3cnc4ccc(-c5ccc(Cl)cc5)nc4c32)cc1)N1CCOCC1 [Compound 151] | <1.0 | 3.5 | 19.1 | 3.72 µM | 52.7
7 | C[C@@H]1CN(C(=O)c2ccc(-n3c(=O)ccc4cnc5ccc(-c6ccc(Cl)cc6)cc5c43)cc2)C[C@H](C)O1 [Compound 101] | <1.0 | 4.5 | 107 | 1.78 µM | 305
8 | CCN(CC)Cc1ccc(-c2ccc3ncc4ccc(=O)n(-c5ccc(C(=O)N6CCOCC6)cc5)c4c3c2)cc1 [Compound 175] | 66.62 | >30.00 | 731 | 11.78 µM | 1620
9 | O=C(c1ccc(-n2c(=O)ccc3cnc4ccc(Br)cc4c32)cc1)N1CCOCC1 [Compound 337] | >68.0 | >30.0 | 1570 | 3.229 µM | 6230
10 | COC(=O)c1cc(-c2ccc3ncc4ccc(=O)n(-c5ccc(C(=O)N6CCOCC6)cc5)c4c3c2)ccc1Cl [Compound 152] | <1.0 | 3.3 | 2200 | 0.7962 µM | 4040
11 | COc1cccc(-c2ccc3ncc4ccc(=O)n(-c5ccc(C(=O)N6CCOCC6)cc5)c4c3c2)c1 [Compound 123] | – | 7.3 | 145 | 0.857 µM | 442
12 | CCNC(=O)c1cc(-c2ccc3ncc4ccc(=O)n(-c5ccc(C(=O)N6CCOCC6)cc5)c4c3c2)ccc1Cl [Compound 150] | 3.9 | 2.4 | 3820 | 7.873 µM | 6230
13 | Nc1cc(-c2ccc3ncc4ccc(=O)n(-c5ccc(C(=O)N6CCOCC6)cc5)c4c3c2)ccc1Cl [Compound 113] | <1.0 | 13.6 | 29.9 | 1.37 µM | 75.9
14 | Nc1ccc(-c2ccc3ncc4ccc(=O)n(-c5ccc(C(=O)N6CCOCC6)cc5)c4c3c2)cc1 [Compound 118] | <1.0 | >30.0 | 6.6 | 0.2691 µM | 29.6
15 | O=C(c1ccc(-n2c(=O)ccc3cnc4ccc(-c5ccc(O)cc5)cc4c32)cc1)N1CCOCC1 [Compound 119] | <1.0 | 18.4 | 7.55 | 0.07539 µM | 32.4
16 | CC(C)(N)c1ccc(-c2ccc3ncc4ccc(=O)n(-c5ccc(C(=O)N6CCOCC6)cc5)c4c3c2)cc1 [Compound 187] | 0 | – | 1600 | 0.7246 µM | 4590
17 | CC1CC1NC(=O)c1ccc(-n2c(=O)ccc3cnc4ccc(-c5ccc(CN(C)C)cc5)cc4c32)cc1 (stereo not drawn) [Compound 177] | >74.00 | – | – | 9.038 µM | 902
18 | COc1cc(C(=O)NC2CC2)ccc1-n1c(=O)ccc2cnc3ccc(-c4ccc(CN(C)C)cc4)cc3c21 [Compound 190] | >77 | >30 | – | 10.68 µM | 248

Continued, in another order:

Row | Sol @ pH 7.4 (Solubility at pH 7.4) [ug/mL] | Microsomal Stability (rat) T1/2 [1] [min] | EC50 [2] [nM] | mTOR (mTOR) | SMILES | EC50 [3] [nM]
19 | 0 | – | 6.57 | 100 µM | Cc1ccc(C#N)cc1-n1c(=O)n(C)c2cnc3ccc(-c4cccc(C#N)c4)cc3c21 [Compound 412] | 39.9
20 | 0 | – | 61.4 | 100 µM | Cc1ccc(C#N)cc1-n1c(=O)n(C)c2cnc3ccc(-c4ccc(F)cc4)cc3c21 [Compound 411] | 109
21 | 0 | – | 52.9 | 50 µM | COc1cc(-c2ccc3ncc4c(c3c2)n(-c2cc(C#N)ccc2C)c(=O)n4C)ccc1F [Compound 409] | 106
22 | 3.1 | >30.0 | 125 | 100 µM | COc1cc(-c2ccc3ncc4c(c3c2)n(-c2cccc(C#N)c2)c(=O)n4C)ccc1Cl [Compound 403] | 262
23 | <1.0 | >30.0 | 268 | Inactive | N#Cc1cccc(-n2c(=O)[nH]c3cnc4ccc(-c5ccc(Cl)cc5)cc4c32)c1 [Compound 397] | 232
24 | <0.1 | 2.4 | 298 | 100 µM | CC(=O)n1c(=O)n(-c2cccc(C#N)c2)c2c3cc(-c4ccc(Cl)cc4)ccc3ncc21 [Compound 405] | 666
25 | <1 | >30 | 52.4 | 50 µM | COc1cc(-c2ccc3ncc4c(c3c2)n(-c2cc(C#N)ccc2C)c(=O)n4C)ccc1Cl [Compound 407] | 104
26 | <1.0 | >30.0 | 105 | 2.471 µM | Cn1c(=O)n(-c2cccc(C#N)c2)c2c3cc(-c4ccc(Cl)cc4)ccc3ncc21 [Compound 398] | 194
27 | <1.0 | >30.0 | 787 | 100 µM | CCn1c(=O)n(-c2cccc(C#N)c2)c2c3cc(-c4ccc(Cl)cc4)ccc3ncc21 [Compound 440] | 2180
28 | 0 | – | 29.4 | 2.73 µM | Cn1c(=O)n(-c2cccc(C#N)c2)c2c3cc(-c4ccc(CCN)cc4)ccc3ncc21 [Compound 413] | 54
29 | 0 | – | 2.49 | 100 µM | Cc1ccc(C#N)cc1-n1c(=O)n(C)c2cnc3ccc(-c4ccc(Cl)c(C#N)c4)cc3c21 [Compound 410] | 36.3
30 | 0 | – | 10 | 100 µM | Cc1ccc(C#N)cc1-n1c(=O)n(C)c2cnc3ccc(-c4ccc(F)c(C#N)c4)cc3c21 [Compound 408] | 305
